One experiment has as its target T1, human mGlu2 (Homo sapiens, UniProt Q14416).
T1 construct: expressed in transfected cells; host or cells: HEK-293 stably co-expressing GIRK channels
The experiment can be described thus: mGlu GIRK cell-based thallium flux assay, human mGlu2. The settings on record: HEK-293 cells co-expressing human mGlu2 and GIRK, EC80 glutamate, single experiment. As to the method:
(§1) Human embryonic kidney (HEK-293) cell lines stably co-expressing human or rat mGlu2 and G protein-coupled inwardly rectifying potassium (GIRK) channels, or human mGlu3 and GIRK, were used for in vitro evaluation of compound activity in thallium flux assay using a fluorescent thallium indicator dye.
(§2) The day before the assay, GIRK cells co-expressing human mGlu3, human or rat mGlu2, as described above, were plated in black-walled, clear-bottomed, amine-coated 384-well plates at a density of 15,000 cells/[…]/well in the assay medium (glutamine-depleted basal DMEM supplemented with 10% dialyzed FBS, 20 mM HEPES, 1 mM sodium pyruvate). Cells were incubated at 37° C. in the presence of 5% CO2. The next day, assay buffer (Hanks balanced salt solution, 20 mM HEPES, 4.16 mM sodium bicarbonate, pH 7.2) was prepared to dilute compounds and Thallos AM fluorescent dye solution. The 2× Thallos dye solution (final concentration 0.34 μM to the cells) was prepared by mixing the dye stock (2.97 mM in DMSO) to 1:1 with 10% pluronic acid before adding to the assay buffer. Cells were washed with assay buffer using a microplate washer to remove the medium, resulting in 20 μL of buffer remaining in each well. […] During the cell dye loading incubation period, a 10-point concentration serial dilution of compound was created from a 10 mM DMSO compound stock by performing a 1:3 serial dilution in DMSO using the Bravo liquid handler. The 2× compound plate was generated by transferring 0.24 μL of the diluted compound in each well to a daughter plate using an Echo acoustic liquid handler. This is further diluted in 40 μL assay buffer, resulting in a range from […] to 1.5 nM final concentration in the assay. The agonist plate (5×) was prepared to include EC80 glutamate concentration (a concentration to elicit 80% of a maximally effective glutamate concentration) in thallium buffer (125 mM sodium bicarbonate, 1 mM magnesium sulfate, 1.8 mM calcium sulfate, 5 mM glucose, 10 mM HEPES, pH 7.2, 12.5 mM thallium sulfate).
(§3) After dye-loading, cell plates were washed with assay buffer to remove excess extracellular dye using a microplate washer, resulting in 20 μL of buffer remaining in each well. After a ten-minute equilibration period, cell, compound and agonist plates were loaded into a Hamamatsu μCell kinetic imaging plate reader equipped with liquid handler to monitor fluorescence changes at 480 nm excitation and 540 nm emission settings. Briefly, after collection of baseline fluorescence, 20 μL of compound was added and incubated for two minutes and twenty seconds. This is immediately followed by adding 10 μL of glutamate-thallium buffer to the wells containing compound. The fluorescent signal was monitored an additional 2.5 minutes after the glutamate addition. Multiple reference wells containing no compound received either no glutamate (for a baseline reference), EC80 glutamate, or ECmax glutamate (for normalization to maximum response). […] Each compound concentration series occurred one time in each plate, and replicates from two or three plates were used in each experimental run. Thallium solutions were handled and disposed of according to guidelines from the Vanderbilt University Chemical Safety department.
(§4) Data were normalized using a static ratio function (F/F0) by dividing every fluorescent measurement by the initial fluorescent value for the corresponding well. The increase in signal resulting from the glutamate/thallium addition of the second add was measured by determining the slope from 3 seconds to 13 seconds after the addition. The average of all baseline slopes (no compound, no glutamate) was determined and this value was subtracted from all other slope values. The average of all ECmax slopes was determined and this value was used to normalize the baseline-corrected slopes to a percent max value (% Emax).
T2 sequence (Q14832 23-879): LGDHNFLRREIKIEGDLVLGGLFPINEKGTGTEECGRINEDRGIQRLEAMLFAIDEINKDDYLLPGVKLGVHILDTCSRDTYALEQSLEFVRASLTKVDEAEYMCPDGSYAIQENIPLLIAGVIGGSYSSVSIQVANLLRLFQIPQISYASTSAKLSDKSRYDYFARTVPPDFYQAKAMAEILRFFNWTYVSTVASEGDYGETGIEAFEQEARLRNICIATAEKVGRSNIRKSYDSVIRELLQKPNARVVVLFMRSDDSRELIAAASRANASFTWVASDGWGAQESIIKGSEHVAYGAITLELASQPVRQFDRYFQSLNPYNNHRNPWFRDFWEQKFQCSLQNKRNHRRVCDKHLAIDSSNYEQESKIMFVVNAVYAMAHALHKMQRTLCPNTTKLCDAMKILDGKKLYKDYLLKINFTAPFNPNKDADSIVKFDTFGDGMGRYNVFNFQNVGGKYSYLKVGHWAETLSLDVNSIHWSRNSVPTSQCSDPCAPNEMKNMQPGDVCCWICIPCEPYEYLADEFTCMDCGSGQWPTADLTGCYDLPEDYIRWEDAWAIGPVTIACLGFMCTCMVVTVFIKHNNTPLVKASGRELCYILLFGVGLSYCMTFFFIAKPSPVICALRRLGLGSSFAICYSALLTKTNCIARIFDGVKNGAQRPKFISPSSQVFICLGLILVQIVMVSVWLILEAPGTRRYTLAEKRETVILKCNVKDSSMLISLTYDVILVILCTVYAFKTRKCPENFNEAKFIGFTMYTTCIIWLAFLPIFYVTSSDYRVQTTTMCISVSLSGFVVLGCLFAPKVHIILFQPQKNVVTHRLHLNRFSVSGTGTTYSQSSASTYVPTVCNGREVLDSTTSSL
T1 sequence (Q14416 19-872): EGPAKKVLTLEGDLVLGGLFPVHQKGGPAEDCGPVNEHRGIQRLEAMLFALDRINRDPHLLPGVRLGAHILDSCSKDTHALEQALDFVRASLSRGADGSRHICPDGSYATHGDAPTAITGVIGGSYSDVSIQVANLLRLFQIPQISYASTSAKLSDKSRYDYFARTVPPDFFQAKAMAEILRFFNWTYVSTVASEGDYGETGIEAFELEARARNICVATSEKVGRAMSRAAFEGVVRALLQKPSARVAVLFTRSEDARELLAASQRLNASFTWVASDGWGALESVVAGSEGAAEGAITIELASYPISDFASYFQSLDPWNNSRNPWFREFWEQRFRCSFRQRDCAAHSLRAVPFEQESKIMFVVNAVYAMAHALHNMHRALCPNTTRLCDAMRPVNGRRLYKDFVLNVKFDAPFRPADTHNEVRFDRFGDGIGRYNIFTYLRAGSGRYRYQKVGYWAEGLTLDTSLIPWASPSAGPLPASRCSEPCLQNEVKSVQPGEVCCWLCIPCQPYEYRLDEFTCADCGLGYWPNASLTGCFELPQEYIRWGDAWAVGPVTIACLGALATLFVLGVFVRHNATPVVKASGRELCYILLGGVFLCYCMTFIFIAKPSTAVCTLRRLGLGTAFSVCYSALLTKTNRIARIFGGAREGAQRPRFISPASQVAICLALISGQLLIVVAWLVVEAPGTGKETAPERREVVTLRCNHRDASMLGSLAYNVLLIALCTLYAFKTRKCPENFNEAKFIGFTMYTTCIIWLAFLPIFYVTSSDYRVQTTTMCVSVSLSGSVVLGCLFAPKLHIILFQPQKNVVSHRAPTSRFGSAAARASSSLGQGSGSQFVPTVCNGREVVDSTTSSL
`Cc1ccc(-c2cc(-c3ccc(F)cc3F)cc3c2CNC3=O)cn1` [Compound 5, 6-(2,4-difluorophenyl)-4-(6-methylpyridin-3-yl)isoindolin-1-one] had an IC50 of 99 nM.
`O=C1NCc2c1cc(-c1ccc(F)cc1F)cc2-c1cnco1` [Compound 6, 6-(2,4-difluorophenyl)-4-(oxazol-5-yl)isoindolin-1-one] yielded an IC50 of 66 nM. This IC50 is about 1.5-fold lower than that of the compound before.
With `Cc1cc(-c2cc(-c3ccc(F)cc3F)cc3c2CNC3=O)cnn1` [Compound 13, 6-(2,4-difluorophenyl)-4-(6-methylpyridazin-4-yl)isoindolin-1-one], inhibition was half-maximal at 163 nM (IC50).
Compound `O=C1NCc2c1cc(-c1ccc(F)cc1F)cc2-c1cnn(C2CC2)c1` [Compound 18, 4-(1-cyclopropyl-1H-pyrazol-4-yl)-6-(2,4-difluorophenyl)isoindolin-1-one] showed an IC50 of 291 nM.
The compound `N#Cc1c(F)ccc(-c2cc3c(c(-c4cnsc4)c2)CNC3=O)c1F` [Compound 55, 2,6-difluoro-3-(7-(isothiazol-4-yl)-3-oxoisoindolin-5-yl)benzonitrile] displayed an IC50 above 10000 nM.
Same read-out and setting: next, `COc1cc(F)c(-c2cc3c(c(-c4cnsc4)c2)CNC3=O)c(F)c1` [Compound 56, 6-(2,6-difluoro-4-methoxyphenyl)-4-(isothiazol-4-yl)isoindolin-1-one]: above 10000 nM.
In the case of `N#Cc1c(F)cc(-c2cc3c(c(-c4cnsc4)c2)CNC3=O)cc1F` [Compound 57, 2,6-difluoro-4-(7-(isothiazol-4-yl)-3-oxoisoindolin-5-yl)benzonitrile], the “Human mGlu2 GIRK IC50 (nM)” value was “Inactive”.
Turning to `O=Cc1ccc(-c2cc3c(c(-c4cnsc4)c2)CNC3=O)c(F)c1F` [Compound 58, 2,3-difluoro-4-(7-(isothiazol-4-yl)-3-oxoisoindolin-5-yl)benzaldehyde], the concentration for half-maximal inhibition (IC50) is above 10000 nM.
`O=C1NCc2c1cc(-c1cc(F)c(F)c(F)c1)cc2-c1cnsc1` [Compound 59, 4-(isothiazol-4-yl)-6-(3,4,5-trifluorophenyl)isoindolin-1-one] yielded an IC50 above 10000 nM.
Compound `Cc1cc(-c2cc3c(c(-c4cnsc4)c2)CNC3=O)c(F)cn1` [Compound 61, 6-(5-fluoro-2-methylpyridin-4-yl)-4-(isothiazol-4-yl)isoindolin-1-one] had an IC50 of 1190 nM.
Same read-out and setting: the result for `CC(C)n1nccc1-c1cc(C2CCOCC2)cc2c1CNC2=O` [Compound 88, 4-(1-isopropyl-1H-pyrazol-5-yl)-6-(tetrahydro-2H-pyran-4-yl)isoindolin-1-one] reads 1700 nM; that for `Cc1ccncc1-c1cc(-c2ccc(F)cc2F)cc2c1CNC2=O` [Compound 89, 6-(2,4-difluorophenyl)-4-(4-methylpyridin-3-yl)isoindolin-1-one], 118 nM.
Compound `O=C1NCc2c1cc(-c1ccc(F)cc1F)cc2-c1ccnc(C(F)(F)F)c1` [Compound 90, 6-(2,4-difluorophenyl)-4-(2-(trifluoromethyl)pyridin-4-yl)isoindolin-1-one] registered an IC50 of 303 nM.
The same measure, in the same setting: next, `COc1cc(-c2cc(-c3ccc(F)cc3F)cc3c2CNC3=O)cc(C)n1` [Compound 91, 6-(2,4-difluorophenyl)-4-(2-methoxy-6-methylpyridin-4-yl)isoindolin-1-one]: 433 nM.
Turning to `Cc1nn(C)c(C)c1-c1cc(C2=CCOCC2)cc2c1CNC2=O` [Compound 92, 6-(3,6-dihydro-2H-pyran-4-yl)-4-(1,3,5-trimethyl-1H-pyrazol-4-yl)isoindolin-1-one], the IC50 came to 424 nM.
The same measure, in the same setting: next, `Cc1c(-c2cc(C3=CCOCC3)cc3c2CNC3=O)cnn1C` [Compound 93, 6-(3,6-dihydro-2H-pyran-4-yl)-4-(1,5-dimethyl-1H-pyrazol-4-yl)isoindolin-1-one]: 258 nM; `Cc1cnn(C)c1-c1cc(C2=CCOCC2)cc2c1CNC2=O` [Compound 94, 6-(3,6-dihydro-2H-pyran-4-yl)-4-(1,4-dimethyl-1H-pyrazol-5-yl)isoindolin-1-one]: 340 nM; `CCn1nccc1-c1cc(C2=CCOCC2)cc2c1CNC2=O` [Compound 95, 6-(3,6-dihydro-2H-pyran-4-yl)-4-(1-ethyl-1H-pyrazol-5-yl)isoindolin-1-one]: 323 nM.
Still for that read-out and setting: the result for `Cc1cc(-c2cc(C3=CCOCC3)cc3c2CNC3=O)n(C)n1` [Compound 96, 6-(3,6-dihydro-2H-pyran-4-yl)-4-(1,3-dimethyl-1H-pyrazol-5-yl)isoindolin-1-one] reads 380 nM; that for `Cc1ncccc1-c1cc(C2=CCOCC2)cc2c1CNC2=O` [Compound 97, 6-(3,6-dihydro-2H-pyran-4-yl)-4-(2-methylpyridin-3-yl)isoindolin-1-one], 195 nM; that for `Cc1nn(C)c(C)c1-c1cc(C2CCOCC2)cc2c1CNC2=O` [Compound 98, 6-(tetrahydro-2H-pyran-4-yl)-4-(1,3,5-trimethyl-1H-pyrazol-4-yl)isoindolin-1-one], 985 nM.
As for `Cc1c(-c2cc(C3CCOCC3)cc3c2CNC3=O)cnn1C` [Compound 99, 4-(1,5-dimethyl-1H-pyrazol-4-yl)-6-(tetrahydro-2H-pyran-4-yl)isoindolin-1-one], the IC50 amounted to 2950 nM.
`O=C1NCc2c1cc(-c1ccc(F)cc1F)cc2N1CC(O)(C(F)(F)F)C1` [Compound A19, 6-(2,4-difluorophenyl)-4-(3-hydroxy-3-(trifluoromethyl)azetidin-1-yl)isoindolin-1-one] had an IC50 of 1220 nM.
With `O=C1CC2(CN1)CN(c1cc(-c3ccc(F)cc3F)cc3c1CNC3=O)C2` [Compound A20, 6-(2,4-difluorophenyl)-4-(7-oxo-2,6-diazaspiro[3.4]octan-2-yl)isoindolin-1-one], the IC50 turned out to be 286 nM.
Still for that read-out and setting: the result for `Cn1cc2c(n1)CN(c1cc(-c3ccc(F)cc3F)cc3c1CNC3=O)C2` [Compound A22, 6-(2,4-difluorophenyl)-4-(2-methyl-2,6-dihydropyrrolo[3,4-c]pyrazol-5(4H)-yl)isoindolin-1-one] reads above 10000 nM; that for `Cc1cc2n(n1)CCN2c1cc(-c2ccc(F)cc2F)cc2c1CNC2=O` [Compound A23, 6-(2,4-difluorophenyl)-4-(6-methyl-2,3-dihydro-1H-imidazo[1,2-b]pyrazol-1-yl)isoindolin-1-one], 488 nM; that for `O=C1NCc2c(CN3CC4CCC(C3)O4)cc(-c3ccc(F)cc3F)cc21` [Compound B7, 4-((8-oxa-3-azabicyclo[3.2.1]octan-3-yl)methyl)-6-(2,4-difluorophenyl)isoindolin-1-one], 292 nM.
The same measure, in the same setting: next, `O=C1NCc2c(CN3CC(O)(C(F)(F)F)C3)cc(-c3ccc(F)cc3F)cc21` [Compound B8, 6-(2,4-difluorophenyl)-4-((3-hydroxy-3-(trifluoromethyl)azetidin-1-yl)methyl)isoindolin-1-one]: 193 nM; `O=C1NCc2c1cc(-c1ccc(F)cc1F)cc2C1=CCCCO1` [Compound B9, 6-(2,4-difluorophenyl)-4-(3,4-dihydro-2H-pyran-6-yl)isoindolin-1-one]: 853 nM; `O=C1NCc2c1cc(-c1ccc(F)cc1F)cc2C1CCCCO1` (centres unmarked) [Compound B10, 6-(2,4-difluorophenyl)-4-(tetrahydro-2H-pyran-2-yl)isoindolin-1-one]: 329 nM.

A further experiment has as its target T2, human mGlu3 (Homo sapiens, UniProt Q14832).
T2 construct: expressed in transfected cells; host or cells: HEK-293 stably co-expressing GIRK channels
Kind of experiment: mGlu GIRK cell-based thallium flux assay, human mGlu3. The settings on record: HEK-293 cells co-expressing human mGlu3 and GIRK, EC80 glutamate, single experiment. As to the method: as §1, §2, §3, §4
For `Cc1ccc(-c2cc(-c3ccc(F)cc3F)cc3c2CNC3=O)cn1` [Compound 5, 6-(2,4-difluorophenyl)-4-(6-methylpyridin-3-yl)isoindolin-1-one], the IC50 is above 10000 nM.
Take `O=C1NCc2c1cc(-c1ccc(F)cc1F)cc2-c1cnco1` [Compound 6, 6-(2,4-difluorophenyl)-4-(oxazol-5-yl)isoindolin-1-one]: the “Human mGlu3 GIRK IC50 (nM)” value is “Inactive”.
On the same count and under the same terms, next, `Cc1cc(-c2cc(-c3ccc(F)cc3F)cc3c2CNC3=O)cnn1` [Compound 13, 6-(2,4-difluorophenyl)-4-(6-methylpyridazin-4-yl)isoindolin-1-one]: “Inactive”.
Still for that read-out and setting: the result for `O=C1NCc2c1cc(-c1ccc(F)cc1F)cc2-c1cnn(C2CC2)c1` [Compound 18, 4-(1-cyclopropyl-1H-pyrazol-4-yl)-6-(2,4-difluorophenyl)isoindolin-1-one] reads “Inactive”.
`Cc1cc(-c2cc(-c3ccc(F)cc3F)cc3c2CNC3=O)n(C)n1` [Compound 79, 6-(2,4-difluorophenyl)-4-(1,3-dimethyl-1H-pyrazol-5-yl)isoindolin-1-one] showed a concentration for half-maximal inhibition (IC50) above 10000 nM.

Broadly, the IC50 is the concentration at which inhibition is half-maximal. Read a low IC50 as greater potency in that assay.

For the origin of these results see US20260226019A1, “NEGATIVE ALLOSTERIC MODULATORS OF METABOTROPIC GLUTAMATE RECEPTOR 2” (Vanderbilt University, priority 2023, published 2026).
